Test results from US20250381242A1 (INVAIO SCIENCES, INC., priority 2024, published 2025).
No end group written: not given here.

Experiments:
E. coli = assay: Bacterial growth inhibition by OD600 absorbance, E. coli; type: cell-based, E. coli (DH5-alpha); details: peptide 10 μM, 24 hours at 37° C., OD 600 nm
Method in brief: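 Peptides added to bacterial culture at 10 μM final (0.1% DMSO); X. citri grown at 30° C., E. coli at 37° C., for 24 h. OD600 read before and after growth; percent inhibition derived relative to 0.1% DMSO negative and oxytetracycline/streptomycin positive controls.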

X. citri = assay: Bacterial growth inhibition by OD600 absorbance, X. citri; type: cell-based, X. citri subsp. citri (ATCC 49118); details: peptide 10 μM, 24 hours at 30° C., OD 600 nm
A. tumefaciens = details: 24 h, 10 μM
E. amylovora = details: 24 h, 10 μM
L. crescens = details: 10 μM

Sequence	growth inhibition, E. coli (E. coli) [%]	growth inhibition, X. citri (X. citri) [%]	growth inhibition, A. tumefaciens (A. tumefaciens) [%]	growth inhibition, E. amylovora (E. amylovora) [%]	growth inhibition, L. crescens (L. crescens) [%]
INWKKIASIGKEVLKAL [compound 94]	<90	<90	100.00	100.00	<90
LNWGALLKHLLK [compound 139]	<90	<90	100.00	100.00	<90
KLLKKAGKLLKKAGKLLKKAG [compound 71]	<90	100.00	100.00	100.00	<90
GIKDLLKGAAKALVKTVLK [compound 87]	<90	<90	98.43	<90	<90
LVQRGRFGRFLKKVRRFIPKVIIAAQIGSRFG [compound 6]	99.36	100.00	100.00	98.64	<90
GWKDWAKKAGGWLKKKGPGMAKAALKAAMQ [compound 2]	<90	100.00	100.00	100.00	<90
GIKKFLKSAKKFVKAFK [compound 86]	<90	<90	98.88	100.00	<90
ALWKTLLKHVGKAAGKAALNAVTDMVNQ [compound 25]	100.00	100.00	100.00	100.00	<90
WFGKLYRGITSVVKKVKGLLSG [compound 55]	100.00	100.00	100.00	100.00	<90
GILSKLGKALKKAAKHAAKA [compound 82]	<90	<90	<90	100.00	<90
IRIRIRPIRIRIRP [compound 98]	99.61	<90	99.18	99.58	<90
